Measurements reported in patent US20260225998A1, “NEW COMPOUNDS FOR TREATING STREPTOCOCCUS INFECTIONS” (AB2 THERAPEUTICS, S. L., priority 2023, published 2026).
≈ marks a conversion by molar mass, not a printed value.

Columns and labels:
Streptococcus pyogenes = experiment: MIC test, microdilution method (CLSI); format: cell-based; details: ATCC strain of Streptococcus pyogenes, 18-20 h at 37° C., MIC = concentration at which growth inhibited ≥80%, read-out: Activity (MIC) Spy
Description: (§1) Experimental Procedure: MIC Test. Microdilution Method
(§2) To evaluate the antimicrobial activity of the compounds, ATCC strains of Streptococcus pneumoniae and Streptococcus pyogenes were used. The minimal inhibitory concentrations (MICs) of the compounds were determined by microdilution assays, according to CLSI methodology.
(§3) 3 mg of compound were weighted in a 4 mL glass vials and were dissolved in properly volume of DMSO 100% (Reference: D2438-50, Sigma) to reach 12.8 mg/mL. (Cmax.).
(§4) In 96-well plates U-form (Reference: 650161, Greiner Bio-One): • Dispense 50 μL of the assayed compounds prepared in DMSO 100% at 12.8 mg/mL in each well in column 1. (8 different compounds per plate, row 1 to row 8) • Dispense 25 μL of DMSO 100% in all wells in columns 2 to 12. • With a multichannel pipette, aspire 25 μL of column 1 and dispense in column 2. Mix the contents in column 2 several times and aspire 25 uL. Dispense in column 3. • Repeat the process until column 10. In column 10, aspire 25 μL of the content and discard. • The final mother plate map is (all values in mg/mL)
(§5) In 96-well plates U-form: • With a multichannel pipette (in dispensing mode), aspire a properly volume (consider the number of copies of the mother plate do you want to perform) of all wells in mother plate, to dispense 1 μL/well in daughter plates.
(§6) Bacterial suspension will be prepared and normalized to 0.5 McFarland turbidity standard (approximately 10^8 CFU/mL) using a physiological saline solution (sodium chloride 0,9%). Then, prepared a 1/1000 dilution (approximately 10^5 CFU/mL) of the suspension in appropriate media (CLSI Standard) and inoculate 99 μL in each well in daughter plates (only columns 1 to 11) using a multidrop™ Combi Reagent Dispenser. In column 12, only 99 μL of media will be dispense as a sterility control.
(§7) The final plate map is (all values in μg/mL):
(§8) Plates will be incubated 18-20 h at 37° C. MIC values will be considered as the concentration of compounds at which the growth will be inhibited=>≥80%, compared to growth control.

Streptococcus pneumoniae = experiment: MIC test, microdilution method (CLSI); format: cell-based; details: ATCC strain of Streptococcus pneumoniae, 18-20 h at 37° C., MIC = concentration at which growth inhibited ≥80%, read-out: Activity (MIC) Spn
Description: as §1, §2, §3, §4, §5, §6, §7, §8

MIC (Streptococcus pyogenes) [µg/mL] | MIC (Streptococcus pneumoniae) [µg/mL] | SMILES
4 (≈ 7.03 µM) | 4 (≈ 7.03 µM) | CNC(=O)[C@@H](O)CNC(=O)c1ccc(O[C@@H](CC2CCCCC2)c2cccc(-c3ccc(C(F)(F)F)cc3)c2)cc1 [Example 8, 4-((S)-2-cyclohexyl-1-(4′-(trifluoromethyl)-[1,1′-biphenyl]-3-yl)ethoxy)-N-((S)-2-hydroxy-3-(methylamino)-3-oxopropyl)benzamide]
> 128 | > 128 | NC(=O)[C@@H](O)CNC(=O)c1ccc(O[C@@H](CC2CCOCC2)c2ccc(-c3ccc(C(F)(F)F)cc3)cc2)cc1 [Example 4, N-((S)-3-amino-2-hydroxy-3-oxopropyl)-4-((S)-2-(tetrahydro-2H-pyran-4-yl)-1-(4′-(trifluoromethyl)-[1,1′-biphenyl]-4-yl)ethoxy)benzamide]
4 (≈ 7.99 µM) | 4 (≈ 7.99 µM) | CC(C)[C@H](Oc1ccc(C(=O)NC[C@H](O)C(N)=O)cc1)c1ccc(-c2ccc(C(F)(F)F)cc2)cc1 [Example 6, N-((S)-3-amino-2-hydroxy-3-oxopropyl)-4-((S)-2-methyl-1-(4′-(trifluoromethyl)-[1,1′-biphenyl]-4-yl)propoxy)benzamide]

More lines, now with the values behind:

SMILES | MIC (Streptococcus pyogenes) [µg/mL] | MIC (Streptococcus pneumoniae) [µg/mL]
NC(=O)[C@@H](O)CNC(=O)c1ccc(O[C@@H](CC2CCCCC2)c2cccc(-c3ccc(C(F)(F)F)cc3)c2)cc1 [Example 2, N-((S)-3-Amino-2-hydroxy-3-oxopropyl)-4-((S)-2-cyclohexyl-1-(4′-(trifluoromethyl)-[1,1′-biphenyl]-3-yl)ethoxy)benzamide] | 1 (≈ 1.8 µM) | 2 (≈ 3.61 µM)
NC(=O)[C@@H](O)CNC(=O)c1ccc(O[C@@H](CC2CCCCC2)c2ccc(-c3ccc(F)cc3)cc2)cc1 [Example 1, N-((S)-3-Amino-2-hydroxy-3-oxopropyl)-4-((S)-2-cyclohexyl-1-(4′-fluoro-[1,1′-biphenyl]-4-yl)ethoxy)benzamide] | 4 (≈ 7.93 µM) | 4 (≈ 7.93 µM)
CC(C)C[C@H](Oc1ccc(C(=O)NC[C@H](O)C(N)=O)cc1)c1ccc(-c2ccc(C(F)(F)F)cc2)cc1 [Example 5, N-((S)-3-amino-2-hydroxy-3-oxopropyl)-4-((S)-3-methyl-1-(4′-(trifluoromethyl)-[1,1′-bipheny]-4-yl)butoxy)benzamide] | > 128 | > 128
